Tests used:
3′-^2SUG^2SUA^2SUC = test: Tm of duplexes of 6-mers with SBC-LNA 3′-^2SUG^2SUA^2SUC; assay type: binding; settings: Table 8; duplexes 2.5 μM; 0.1 M NaCl, 10 mM Na-phosphate pH 7.0, 10 mM EDTA
Protocol: (§1) (entry 1) to 53.5° C. (entry 2) thus verifying the reduced strength of the intramolecular hydrogen bonds of the self complementary oligonucleotide. At the same time the oligonucleotides containing the SBC LNA monomers are able to hybridize to complementary DNA due to the increased binding efficiency of LNA-D and LNA-^2SU. Similarly as exemplified in Table 8 (see below) the Tm of a duplex between 2 complementary oligonucleotides containing e.g. 3 SBC LNA pairs (entry 3) is reduced to 59° C. from the corresponding non-SBC LNA duplex (82° C.-entry 1) while the single-stranded SBC LNA oligonucleotides still are capable to hybridize to complementary non-modified LNA oligonucleotides as well as DNA oligonucleotides with increased Tm.

3′-TG^2SUATC = test: Tm of duplexes of 6-mers with SBC-LNA 3′-TG^2SUATC; assay type: binding; settings: Table 8; duplexes 2.5 μM; 0.1 M NaCl, 10 mM Na-phosphate pH 7.0, 10 mM EDTA
Protocol: as §1

3′-TGTATC = test: Tm of duplexes of 6-mers with LNA 3′-TGTATC; assay type: binding; settings: Table 8; duplexes 2.5 μM; 0.1 M NaCl, 10 mM Na-phosphate pH 7.0, 10 mM EDTA
Protocol: as §1

3′-ctgtatcc = test: Thermal denaturation (Tm) of duplexes with complementary DNA 3′-ctgtatcc; assay type: binding; settings: Table 8; duplexes 2.5 μM; 0.1 M NaCl, 10 mM Na-phosphate pH 7.0, 10 mM EDTA
Protocol: The complexing properties of oligonucleotides containing new LNA monomers 1-3 were assessed. Comparative binding data from an 8-mer LNA sequence is shown in Table 4 as the melting temperatures against complementary single-stranded DNA. An exemplary sequence for this comparison is GACATAGG, which is the central part of a capture probe used for SNP detection in GluclVS7-7asA (A:a mismatch position). The thermal stabilities of reference DNA duplexes (entries 1-7, Table 4) can be directly compared with their LNA counterparts (entries 8-14). […] The average melting temperatures of DNA and LNA 8-mers against complementary DNAs typically differ by about 40° C. […] (i.e., entries 1 and 4). D-nucleosides may facilitate a B to A helix transition, because the A-type structure of an LNA:DNA duplex is more suitable for effective D:t pairing. This stabilizing effect is expected to be even more pronounced for LNA:RNA duplexes, which can be very useful for construction of antisense or other gene-silencing reagents. The mismatch discrimination ability of the D-nucleoside was also studied (entry 11).
The absorbance was monitored at 260 nm while raising the temperature at a rate of 1° C. per min. The melting temperatures (Tm values) of the duplexes were determined as the maximum of the first derivatives of the melting curves obtained.

3′-ACGACCAC-5′ = test: Tm of LNA:DNA and DNA:DNA 8-mer duplexes, perfect match (Table 2); assay type: binding
From the text: (§2) It is often difficult to design probes and primers with the same range of melting temperature due to the variance in A/T and G/C content of the probing sites. Highly A/T rich regions typically give lower Tm values. Furthermore, if single mismatches are to be resolved, G/T mismatches are known to contribute little to ΔTm. As discussed above, the use of LNA is a desirable way to solve problems related to multiplex use of primers and probes. LNA offers the possibility to adjust Tm and increase the ΔTm at the same time. LNA increases Tm with 4-8° C./substitution and Increases ΔTm in many cases with several 100% (Table 2 and FIG. 22).

3′-ACGGCCAC-5′ = test: Tm of LNA:DNA and DNA:DNA 8-mer duplexes, single mismatch (Table 2); assay type: binding; settings: for ΔTm: perfect match vs single mismatch
From the text: as §2

caacatcccaca = test: Tm of chimeric LNA-DNA 12-mers, HNFas128A-2, perfect duplex; assay type: binding; settings: Table 5, HNFas128A-2, perfect duplex; duplexes 2 μM; buffer as Table 4
Protocol: (§3) The thermal denaturation experiments were performed on a Perkin-Elmer UV/VIS spectrometer fitted with a PTP-6 Peltier temperature-programming element using a medium salt buffer solution (10 mM sodium phosphate, 100 mM sodium chloride, 0.1 mM EDTA, pH 7.0). […] The absorbance was monitored at 260 nm while raising the temperature at a rate of 1° C. per min. The melting temperatures (Tm values) of the duplexes were determined as the maximum of the first derivatives of the melting curves obtained.

caacaacccaca = test: Tm of chimeric LNA-DNA 12-mers, HNFas128A-2, singly mismatched duplex; assay type: binding; settings: for Tm (± 0.5° C.) of the duplexes with DNA oligonucleotide caacaacccaca: Table 5, HNFas128A-2, singly mismatched, duplexes 2 μM, buffer as Table 4; for ΔTm between singly mismatched and perfect duplexes (HNFas128A-2): Table 5, value in brackets
Protocol: as §3

aagaggccagtg = test: Tm of chimeric LNA-DNA 12-mers, Gluc53as-A, singly mismatched duplex; assay type: binding; settings: for Tm (± 0.5° C.) of the duplexes with DNA oligonucleotide aagaggccagtg: Table 5, Gluc53as-A, singly mismatched, duplexes 2 μM, buffer as Table 4; for ΔTm between singly mismatched and perfect duplexes (Gluc53as-A): Table 5, value in brackets
Protocol: as §3

aagagtccagtg = test: Tm of chimeric LNA-DNA 12-mers, Gluc53as-A, perfect duplex; assay type: binding; settings: Table 5, Gluc53as-A, duplexes 2 μM, buffer as Table 4
Protocol: as §3

[1] = tested on: self complementary duplex; test: Tm of self complementary duplexes of dual labeled SBC-LNA probes; assay type: binding; settings: Table 7, duplexes 2 μM, 0.1 M NaCl, 10 mM Na-phosphate pH 7.0, 1 mM EDTA
Protocol: as §1

5′-ACATAG
Tm of the duplexes with 3′-^2SUG^2SUA^2SUC (3′-^2SUG^2SUA^2SUC): 83 °C | Tm of the duplexes with 3′-TG^2SUATC (3′-TG^2SUATC): 85 °C | Tm of the duplexes with 3′-TGTATC (3′-TGTATC): 82 °C | Tm of the duplexes with 3′-ctgtatcc (3′-ctgtatcc): 27 °C

5′-TGCTGGTG-3′ [DNA 8-mer, reference compound]
Tm of LNA:DNA Duplexes, Perfect match 3′-ACGACCAC-5′ (3′-ACGACCAC-5′): 35 °C | Tm of LNA:DNA Duplexes, Single mismatch 3′-ACGGCCAC-5′ (3′-ACGGCCAC-5′): 25 °C | ΔTm (3′-ACGGCCAC-5′): 10 °C

5′-TGCTGGTG-3′ [LNA 8-mer]
Tm of LNA:DNA Duplexes, Perfect match 3′-ACGACCAC-5′ (3′-ACGACCAC-5′): 71 °C | Tm of LNA:DNA Duplexes, Single mismatch 3′-ACGGCCAC-5′ (3′-ACGGCCAC-5′): 45 °C | ΔTm (3′-ACGGCCAC-5′): 26 °C

5′-ACDTAG
Tm of the duplexes with 3′-^2SUG^2SUA^2SUC (3′-^2SUG^2SUA^2SUC): 73 °C | Tm of the duplexes with 3′-TG^2SUATC (3′-TG^2SUATC): 75 °C | Tm of the duplexes with 3′-TGTATC (3′-TGTATC): 93 °C | Tm of the duplexes with 3′-ctgtatcc (3′-ctgtatcc): 37 °C

tGtggGDTGttg
Tm (± 0.5° C.) of the complementary duplexes with DNA oligonucleotide caacatcccaca (caacatcccaca): 65.5 °C | Tm (± 0.5° C.) of the duplexes with DNA oligonucleotide caacaacccaca (caacaacccaca): 49.7 °C | ΔTm between singly mismatched and perfect duplexes (HNFas128A-2) (caacaacccaca): −15.8 °C

tGtggGATGttg (TGTGGGATGTTG; chemistry not given here) [chimeric LNA-DNA 12-mer, HNFas128A-2, with LNA-A]
Tm (± 0.5° C.) of the complementary duplexes with DNA oligonucleotide caacatcccaca (caacatcccaca): 61.0 °C | Tm (± 0.5° C.) of the duplexes with DNA oligonucleotide caacaacccaca (caacaacccaca): 45.9 °C | ΔTm between singly mismatched and perfect duplexes (HNFas128A-2) (caacaacccaca): −15.1 °C

Nc1ncc2ncn([C@@H]3O[C@@]4(CO)CO[C@@H]3[C@@H]4O)c2n1 [Compound 23, (1S,3R,4R,7S)-3-(2-aminopurin-9-yl)-7-hydroxy-1-hydroxymethyl-2,5-dioxabicyclo[2.2.1]heptane]
melting point: 227.5 to 229 °C (dec.)

5′-DCDTDG
Tm of the duplexes with 3′-^2SUG^2SUA^2SUC (3′-^2SUG^2SUA^2SUC): 59 °C | Tm of the duplexes with 3′-TG^2SUATC (3′-TG^2SUATC): 95 °C | Tm of the duplexes with 3′-TGTATC (3′-TGTATC): >97 °C | Tm of the duplexes with 3′-ctgtatcc (3′-ctgtatcc): 55 °C

cAmCtgGDmCtctt
Tm (± 0.5° C.) of the duplexes with DNA oligonucleotide aagaggccagtg (aagaggccagtg): 45.4 °C | ΔTm between singly mismatched and perfect duplexes (Gluc53as-A) (aagaggccagtg): −19.9 °C | Tm (± 0.5° C.) of the complementary duplexes with DNA oligonucleotide aagagtccagtg (aagagtccagtg): 65.3 °C

5′-Fitc-tAAATTTTA-EQL
Tm ^a of self complementary duplexes [1]: >90 (94-96) ° C. | Tm ^a of self complementary duplexes ([1]; listed as Table 7 entry 1): 90 °C

5′-Fitc-taDDT^2SU^2SUta-EQL
Tm ^a of self complementary duplexes [1]: 53.5 °C

5′-Fitc-tDDDt^2S U^2SU^2SUa-EQL
Tm ^a of self complementary duplexes [1]: 64.5 °C

cAmCtgGAmCtctt (CACTGGACTCTT; mixed-case modified oligonucleotide, notation key not given here) [chimeric LNA-DNA 12-mer, Gluc53as-A, with LNA-A]
Tm (± 0.5° C.) of the duplexes with DNA oligonucleotide aagaggccagtg (aagaggccagtg): 50.6 °C | ΔTm between singly mismatched and perfect duplexes (Gluc53as-A) (aagaggccagtg): −10.9 °C | Tm (± 0.5° C.) of the complementary duplexes with DNA oligonucleotide aagagtccagtg (aagagtccagtg): 61.5 °C

Source: patent US20060147924A1, “Population of nucleic acids including a subpopulation of lna oligomers” (priority 2002, published 2006)
